From patent US6486199B1, “Spiro and dispiro 1,2,4-trioxolane antimalarials” (Medicines for Malaria Venture MMV International Centre …, priority 2001, dated 2002)
Converted amounts (≈) assume the structure as drawn. Read-outs that look alike come from different tables or passages of the source. Marks after values point to notes of the source that are not given here.

Legend:
[1] = tested on: chloroquine-resistant K1 strain of P. falciparum; assay: in vitro screen against chloroquine-resistant K1 strain of P. falciparum; format: cell-based; conditions: for IC50: Plasmodium falciparum
parasitemia = assay: onset of drug action and recrudescence after single oral dose; format: in vivo; conditions: for Recrudescence (>5% parasitemia) occurs on day: single 100 mg/kg po on day +3 post-infection
Method: The reduction of parasitemia was monitored 12 h after treatment, and the time of recrudescence was assessed by daily blood smears for 14 days, followed by intermittent assessment for up to 30 days.

P. berghei [2] = assay: 1-day Peters test against P. berghei in vivo; conditions: for ED50 / ED90: Plasmodium berghei, 24 h; for ED90: read-out: P. berghei (1 day) ED90 po; for oral activity based on po ED50/ED90 values: ranking among trioxolanes and controls
[3] = tested on: chloroquine-sensitive NF54 strain of P. falciparum; assay: in vitro screen against chloroquine-sensitive NF54 strain of P. falciparum; format: cell-based; conditions: for IC50: Plasmodium falciparum
[4] = tested on: ANKA strain of P. Berghei; assay: single dose STI in vivo screen in infected Moro SPF mice; conditions: for inhibition in vivo at 10 mg/kg: Plasmodium berghei, 72 h; for antimalarial activity, overall assessment: overall judgement of in vitro and in vivo data of Table 2
NB2a cell line = assay: neurotoxicity against the NB2a cell line; format: cell-based
[5] = differential scanning calorimetry (DSC), thermal stability; format: physicochemical; conditions: thermal decomposition
[6] = tested on: adult schistosomes (49-day-old) of Schistosoma mansoni; assay: effect on adult schistosomes (49-day-old) in mice; format: in vivo; conditions: single 400 mg/kg per os; for TWR (%): total worm reduction rate; for Mean total worm burden: x ± SD
Method: Mice were infected with 100 Schistosoma mansoni cercariae […]. Each group was treated per os with OZ compounds at a single dose of 400 mg/kg. Untreated mice served as the control. All groups were killed 4 weeks after treatment and the liver and intestine were removed and separated. The liver and intestine were compressed and alive male and female worms could be seen and counted.

[7] = tested on: 21-day-old schistosomules of Schistosoma mansoni; assay: effect on 21-day-old schistosomules in mice; format: in vivo; conditions: single 200 mg/kg per os; for FWR (%): female worm reduction rate; for Mean female worm burden: mean ± standard deviation; for TWR (%): total worm reduction rate
Method: […] Each group was treated per os with OZ compounds at a single dose of 200 mg/kg. Untreated mice served as the control. All groups were killed 4 weeks after treatment and the liver and intestine were removed and separated. The liver and intestine were compressed and alive male and female worms could be seen and counted. The effect of the compounds was evaluated by mean total and female worm burden.

[8] = tested on: adult schistosomes (49-day-old) of Schistosoma mansoni; assay: effect on adult schistosomes (49-day-old) in mice; format: in vivo; conditions: dose used was 200 mg/kg; for TWR (%): total worm reduction rate; for Mean total worm burden: x ± SD
P. berghei [9] = assay: 4-day Peters test against P. berghei in vivo; conditions: 4 day
[10] = in vitro, K1 strain, read-out: IC50 (ng/ml) K1
[11] = in vitro, NF54 strain, read-out: IC50 (ng/ml) NF54
[12] = percent reduction in parasitemia day 3 post-infection, single 100 mg/kg po
[13] = percent reduction in parasitemia day 3 post-infection, single 100 mg/kg sc

SMILES	P. berghei (1 day) ED90 sc (P. berghei [2]; 1 day, sc)	Tm dec. (° C.) [5]	Percentage of dead worm [6]	Total dead worm [6]	TWR (%) [6]	Mean total worm burden [6]	FWR (%) [7]	Mean female worm burden [7]	TWR (%) [7]	antimalarial activity, overall assessment [4]	P. berghei (4 day) ED50 po (P. berghei [9])	P. berghei (4 day) ED90 po (P. berghei [9])	P. berghei (4 day) ED50 sc (P. berghei [9])	P. berghei (4 day) ED90 sc (P. berghei [9])	P. berghei (1 day) ED50 po (P. berghei [2]; 1 day, po)	P. berghei (1 day) ED90 po (P. berghei [2]; 1 day, po)	also measured
C[C@H]1[C@H](OC(=O)CCC(=O)O)O[C@@H]2O[C@@]3(C)CC[C@H]4[C@H](C)CC[C@@H]1[C@@]24OO3 [Artesunate, artesunate, reference compound]	16 mg/kg	–	–	–	–	–	–	–	–	–	–	–	–	–	–	–	IC50 ([1]; K1, read-out: IC50 (ng/ml) K1): 1.2 ng/mL (≈ 3.12 nM); Recrudescence (>5% parasitemia) occurs on day (parasitemia): 2 days; onset of action: decline in parasitemia (parasitemia; single 100 mg/kg po, monitored 12 h after treatment): rapid decline in parasitemia; ED50 (P. berghei [2]; po, read-out: P. berghei (1 day) ED50 po): 5 mg/kg; ED90 (P. berghei [2]; po): 13 mg/kg; ED50 (P. berghei [2]; sc, read-out: P. berghei (1 day) ED50 sc): 0.86 mg/kg; IC50 ([3]; NF54, read-out: IC50 (ng/ml) NF54): 1.2 ng/mL (≈ 3.12 nM); inhibition in vivo at 10 mg/kg ([4]; po, read-out: Activity (%) po): 83.3%; inhibition in vivo at 10 mg/kg ([4]; sc, read-out: Activity (%) sc): 81.1%; Survival (days) po ([4]; single 10 mg/kg po): 7.1 days; Survival (days) sc ([4]; single 10 mg/kg sc): 8.0 days
C[C@H]1[C@@H](O)O[C@@H]2O[C@@]3(C)CC[C@H]4[C@H](C)CC[C@@H]1[C@@]24OO3 [Dihydroart, dihydroartemisinin, reference compound]	–	–	–	–	–	–	–	–	–	–	–	–	–	–	–	–	IC50 [1, 10]: 0.22 ng/mL (≈ 0.774 nM); IC50 (NB2a cell line): 0.22 µM; ED50 (P. berghei [2]; 1 day, po, read-out: P. berghei (1 day) ED50 po): 2.9 mg/kg; ED90 (P. berghei [2]; 1 day, po): 12 mg/kg; IC50 [3, 11]: 0.23 ng/mL (≈ 0.809 nM); inhibition in vivo at 10 mg/kg ([4]; percent reduction in parasitemia day 3 post-infection, single 10 mg/kg po, read-out: Activity (%) po): 80%; Survival (days) po ([4]; single 10 mg/kg po): 6.8/NA days
C1C2CC3CC1CC(C2)C31OOC2(O1)C1CC3CC(C1)CC2C3 (stereo not shown) [OZ04, Adamantane-2-spiro-3′-1′,2′,4′-trioxolane-5′-spiro-2″-adamantane]	–	150.8 °C	0	0	0%	37.6 ± 13.4	7%	11.6 ± 3.2^a	7%	completely inactive	–	–	–	–	–	–	IC50 (NB2a cell line; NB2a cell line): 44 µM; Activity (%) po [4, 12]: 0/0%; Activity (%) sc [4, 13]: 0/0%; Survival (days) po ([4]; single 100 mg/kg po, survival to day 30 = cure): 5.3/5.3 days; Survival (days) sc ([4]; single 100 mg/kg sc, survival to day 30 = cure): 5.3/5.3 days
CCOC(=O)CCC1CCCCC12OOC1(CCCCC1)O2 (stereo not shown) [OZ07, 1-[2-(Ethoxycarbonyl)ethyl]-7,14,15-trioxadispiro[5.1.5.2]pentadecane]	–	–	–	–	–	–	–	–	–	less active	–	–	–	–	–	–	IC50 [1, 10]: 66 ng/mL (≈ 211 nM); IC50 (NB2a cell line): 27 µM; IC50 [3, 11]: 49 ng/mL (≈ 157 nM); Activity (%) po [4, 12]: 0/0%; Activity (%) sc [4, 13]: 0/0%
CCOC(=O)CCC1CCCCC12OOC1(O2)C2CC3CC(C2)CC1C3 (stereo not shown) [OZ08, Adamantane-2-spiro-3′-6′-[2′-(ethoxycarbonyl)ethyl]-1′,2′,4′-trioxaspiro[4.5]decane]	–	–	–	–	–	–	–	–	–	more active	–	–	–	–	–	–	IC50 (NB2a cell line; NB2a cell line): 42 µM
O=C1C2C3CC4C5C3C1C5C1(OOC3(O1)C1CC5CC(C1)CC3C5)C42 (stereo not shown) [OZ14, Adamantane-2-spiro-3′-1′,2′,4′-trioxolane-5′-spiro-8″-11″-oxopentacyclo[5.4.0.0^2″,6″.0^3″,10″.0^5″,9″]undecane]	–	113.3 °C	–	–	–	–	0%	12.4 ± 4.2	7%	–	–	–	–	–	–	–	Percentage of dead worm [8]: 0; Total dead worm [8]: 0; TWR (%) [8]: 0%; Mean total worm burden [8]: 44.5 ± 13.2
CCOC(=O)N1CCC2(CC1)OOC1(O2)C2CC3CC(C2)CC1C3 (stereo not shown) [OZ23, Adamantane-2-spiro-3′-8′-ethoxycarbonyl-1′,2′,4′-trioxa-8′-azaspiro[4.5]decane]	NA/1.9 mg/kg	160.8 °C	–	–	–	–	84%	2.0 ± 1.0^b	90%	–	0.9 mg/kg	2.0 mg/kg	0.5 mg/kg	0.9 mg/kg	1.6 mg/kg	5.5 mg/kg	Percentage of dead worm [8]: 4 (5/124); Total dead worm [8]: 5; TWR (%) [8]: 0%; Mean total worm burden [8]: 39.7 ± 19.6; oral activity based on po ED50/ED90 values (P. berghei [2]; po): only slightly less orally active than OZ11; in vivo activity ([4]; 10 mg/kg po/sc data of Table 2): best in vivo activity
c1ccc(C2CCC3(CC2)OOC2(O3)C3CC4CC(C3)CC2C4)cc1 (stereo not shown) [OZ27, Adamantane-2-spiro-3′-8′-phenyl-1′,2′,4′-trioxaspiro[4.5]decane]	3.1 mg/kg	161.7 °C	9.6 (15/157)	15	19.6%	28.4 ± 9.5^a	58%	5.2 ± 1.6^b	63%	excellent activity	1.3 mg/kg	2.6 mg/kg	0.2 mg/kg	0.9 mg/kg	1.9 mg/kg	3.2 mg/kg	IC50 (ng/ml) K1 ([1]; in vitro, K1 strain): 2.2 ng/mL (≈ 6.46 nM); duration of action compared with artemether (parasitemia; single 100 mg/kg po): longer; Recrudescence (>5% parasitemia) occurs on day (parasitemia): 11 days; P. berghei (1 day) ED50 sc (P. berghei [2]; 1 day, sc): 1.8 mg/kg; oral activity based on po ED50/ED90 values (P. berghei [2]; po): only slightly less orally active than OZ11; IC50 (ng/ml) NF54 ([3]; in vitro, NF54 strain): 4.8 ng/mL (≈ 14.1 nM)
OC1CCC2(CC1)OOC1(O2)C2CC3CC(C2)CC1C3 (stereo not shown) [OZ32, Adamantane-2-spiro-3′-8′-hydroxy-1′,2′,4′-trioxaspiro[4.5]decane]	2.1 mg/kg	147.9 °C	27.6 (50/181)	50	26.8%	26.2 ± 5.9^b	70%	3.8 ± 1.9^b	73%	–	2.6 mg/kg	5.1 mg/kg	0.6 mg/kg	1.3 mg/kg	1.9 mg/kg	13 mg/kg	IC50 (ng/ml) K1 ([1]; in vitro, K1 strain): 0.25 ng/mL (≈ 0.892 nM); P. berghei (1 day) ED50 sc (P. berghei [2]; 1 day, sc): > 1 mg/kg; IC50 (ng/ml) NF54 ([3]; in vitro, NF54 strain): 0.51 ng/mL (≈ 1.82 nM)
